Laboratory results from patent publication US20250092015A1, “A 6-substituted Chiral Pure Difluoropiperidine Quinazoline Derivative And Its Preparation Method” (WEISHANG (SHANGHAI) BIO-PHARMACEUTICAL CO., LTD., priority 2022, published 2025).
Like-named read-outs stand apart in the source and are kept apart here.

Legend:
[1] = tested on: PC-9 tumor cell (EGFR Del 19 mutation); experiment: CellTiter-Glo (CTG) cell viability, PC-9 cells; type: cell-based; conditions: Homo sapiens, 72 h of drug addition, read-out: Growth inhibition IC50, PC-9 tumor cell (EGFR Del 19 mutation)
Description: (§1) Cell viability of tumor cells and gliomas with EGFR-activated mutant (Exon 19 Del, PC-9 cell; Exon 21 L858R, H3255 cell) protein was detected using CellTiter-Glo (CTG) assay; approximately 5000 cells were placed in each blank of the 96-well plate. The diluted compound was added proportionally after 16 h and equilibrated at room temperature for 30 min after 72 h of drug addition. 100 µL of CellTiter-Glo reagent was added to each well and mixed well on an orbital shaker for 2 min to induce cell lysis. The plate was incubated at room temperature for 10 min to stabilize the luminous signal. The luminous signal was recorded on a TECAN Infinite M1000 Pro instrument.

[2] = Pharmacokinetic study of rats (bioavailability); type: in vivo; conditions: rat, blood, 1-2 mg/kg iv vs 2-40 mg/kg PO
Description: In the pharmacokinetic study of rats, Group 1 (3 rats) was administrated with 1-2 mg/kg, iv, and Group 2 (3 rats) was administrated with 2-40 mg/kg, PO. Blood was sampled at 7 time points (0.25, 0.5, 1, 2, 4, 8 and 16 hours points) to measure the concentration of the quinazoline derivatives (I) prepared by the present disclosure in blood and calculate the peak area and half-life. Bioavailability is calculated as (peak area of oral drug/oral dose)/(peak area of intravenous drug/intravenous dose)×100%.

EGFR enzyme = EGFR enzyme (Homo sapiens, UniProt P00533); experiment: EGFR enzyme ADP-Glo mechanism of action study (ATP titration); type: biochemical; conditions: PolyE4Y1 substrate, ATP diluted from 600 uM, FIG. 4
Sequence of EGFR enzyme (P00533 25-1210): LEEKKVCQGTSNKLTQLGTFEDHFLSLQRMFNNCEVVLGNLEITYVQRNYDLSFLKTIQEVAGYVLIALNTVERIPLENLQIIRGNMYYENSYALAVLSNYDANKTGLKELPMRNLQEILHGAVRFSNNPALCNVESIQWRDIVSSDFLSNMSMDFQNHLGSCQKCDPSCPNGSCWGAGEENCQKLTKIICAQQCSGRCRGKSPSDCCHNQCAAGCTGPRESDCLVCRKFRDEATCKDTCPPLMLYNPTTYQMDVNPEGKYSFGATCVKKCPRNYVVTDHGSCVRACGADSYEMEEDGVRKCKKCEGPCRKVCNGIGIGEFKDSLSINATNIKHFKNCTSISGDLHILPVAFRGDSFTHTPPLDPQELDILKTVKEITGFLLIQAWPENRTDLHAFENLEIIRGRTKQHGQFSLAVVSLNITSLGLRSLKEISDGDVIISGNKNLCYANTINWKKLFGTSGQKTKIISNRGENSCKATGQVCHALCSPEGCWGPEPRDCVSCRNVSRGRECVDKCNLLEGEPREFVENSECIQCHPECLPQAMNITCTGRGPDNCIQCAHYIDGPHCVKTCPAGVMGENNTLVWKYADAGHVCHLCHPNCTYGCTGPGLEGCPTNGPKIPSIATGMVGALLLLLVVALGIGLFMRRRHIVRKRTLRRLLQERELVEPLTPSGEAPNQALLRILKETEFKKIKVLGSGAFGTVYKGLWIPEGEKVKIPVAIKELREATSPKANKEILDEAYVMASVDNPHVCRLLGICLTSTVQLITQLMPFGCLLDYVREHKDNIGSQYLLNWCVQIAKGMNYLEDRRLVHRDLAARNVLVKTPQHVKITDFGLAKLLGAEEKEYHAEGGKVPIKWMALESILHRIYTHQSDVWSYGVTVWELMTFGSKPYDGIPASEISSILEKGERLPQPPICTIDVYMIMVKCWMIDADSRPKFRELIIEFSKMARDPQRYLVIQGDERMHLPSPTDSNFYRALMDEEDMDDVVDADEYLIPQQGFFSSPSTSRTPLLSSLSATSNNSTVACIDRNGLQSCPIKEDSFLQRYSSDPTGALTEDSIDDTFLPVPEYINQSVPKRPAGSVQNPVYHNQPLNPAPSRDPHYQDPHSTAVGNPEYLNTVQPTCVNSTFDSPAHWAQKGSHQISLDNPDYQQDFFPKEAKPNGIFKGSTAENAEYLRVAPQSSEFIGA
Description: In the study of the mechanism of action of (R)-6-((3,3-difluoro-1-methylpiperidin-4-yl)oxy)-N-(3-ethynyl-2-fluorophenyl)-7-methoxyquinazoline-4-amine prepared by the present disclosure to inhibit EGFR, EGFR enzyme was added to a solution of PolyE4Y1 on a 384-well plate from 6 concentrations diluted at an equal ratio of 0.4 nM (2-fold) to 0.0125 nM and 0 concentration, and incubated for 15 min. ATP was added at 7 concentrations diluted at an equal ratio of 600 uM (2-fold) for reaction for 60 min, and then ADP-Glo reagent and detection reagent were added for 40 min to measure RLU signal. […] The benefits of this mechanism of action are obvious, with minimal side effects and anti-drug resistance.

[3] = Rate of crossing blood-brain barrier in rats; type: in vivo; conditions: 4 h after administration
Description: To determine whether (R)-6-((3,3-difluoro-1-methylpiperidin-4-yl)oxy)-N-(3-ethynyl-2-fluorophenyl)-7-methoxyquinazoline-4-amine prepared by the present disclosure is able to cross the blood-brain barrier (BBB), the test compound was administered to rats. After 4 h of administration, the rats were killed and blood and brain tissues were collected to test the compound concentration. Brain osmosis is defined as the ratio of the concentration of compounds in brain tissue to the concentration in plasma. The rate of crossing blood-brain barrier is the ratio of free drug concentration in brain tissue to free drug concentration in plasma. P-glycoprotein is an efflux protein at the blood-brain barrier that excretes P-glycoprotein substrate from the brain. Breast cancer resistance protein is an efflux protein at the blood-brain barrier that excretes […].

[4] = tested on: patient's primary tumor tissue GBM (EGFRV3 mutated brain tumor); experiment: Survival in mouse intracranial PDX model; type: in vivo, mice; conditions: 30 mg/kg, PO, BID, treatment more than 50 d, FIG. 2
Description: The patient's primary tumor tissue GBM (brain tumor, about 50,000 cells) was seeded into the brain of mice. Administration began after the tumor grew for about 10 d and treatment lasted for more than 50 d. In the pharmacodynamic study of tumor transplanted animal model with EGFRV3 mutated brain tumor from patient's primary tumor tissue in mice, Group 1 was the control group (8 mice) without any medication. Group 2 received (R)-6-((3,3-difluoro-1-methylpiperidin-4-yl)oxy)-N-(3-ethynyl-2-fluorophenyl)-7-methoxyquinazoline-4-amine monotherapy group (8 mice), 30 mg/kg, PO, BID.

[5] = target: T1, Breast cancer resistance protein (Homo sapiens, UniProt Q9UNQ0); experiment: Breast cancer resistance protein efflux substrate test; type: in vitro ADME
T1 sequence (Q9UNQ0 1-655): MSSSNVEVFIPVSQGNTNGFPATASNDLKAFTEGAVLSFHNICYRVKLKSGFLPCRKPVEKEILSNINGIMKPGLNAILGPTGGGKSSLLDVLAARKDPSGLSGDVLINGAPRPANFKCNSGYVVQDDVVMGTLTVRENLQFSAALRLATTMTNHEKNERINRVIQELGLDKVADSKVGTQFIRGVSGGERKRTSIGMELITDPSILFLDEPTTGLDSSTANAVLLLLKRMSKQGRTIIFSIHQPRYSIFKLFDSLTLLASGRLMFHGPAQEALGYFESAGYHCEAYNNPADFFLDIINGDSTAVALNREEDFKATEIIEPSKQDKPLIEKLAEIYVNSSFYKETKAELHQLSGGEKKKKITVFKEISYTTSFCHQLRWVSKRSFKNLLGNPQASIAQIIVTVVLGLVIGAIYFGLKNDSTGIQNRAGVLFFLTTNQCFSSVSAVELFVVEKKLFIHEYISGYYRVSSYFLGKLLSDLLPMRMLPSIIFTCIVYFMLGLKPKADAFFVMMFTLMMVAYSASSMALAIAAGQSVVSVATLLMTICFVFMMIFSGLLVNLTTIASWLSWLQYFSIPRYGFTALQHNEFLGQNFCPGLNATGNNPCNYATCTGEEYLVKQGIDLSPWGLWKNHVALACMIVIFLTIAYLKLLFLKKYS

[6] = tested on: PC-9luc tumor cells (non-small cell lung cancer with Exon 19 Del); experiment: Survival in mouse model of intracranial meningeal metastasis; type: in vivo; conditions: PO, BID, PC-9luc seeded into brain of mice, FIG. 3
Description: PC-9luc tumor cells (non-small cell lung cancer with Exon 19 Del, about 2×10^5 cells) were seeded into the brain of mice, and administration was started approximately 11 days after tumor growth. Group 1 was the control group (8 mice), without any medication. Group 2 received Iressa (8 mice), 15 mg/kg, PO. Group 3 received (R)-6-((3,3-difluoro-1-methylpiperidin-4-yl)oxy)-N-(3-ethynyl-2-fluorophenyl)-7-methoxyquinazoline-4-amine monotherapy group (8 mice), 10 mg/kg, PO, BID. Group 4 received (R)-6-((3,3-difluoro-1-methylpiperidin-4-yl)oxy)-N-(3-ethynyl-2-fluorophenyl)-7-methoxyquinazoline-4-amine monotherapy group (8 mice), 3 mg/kg, PO, BID.

[7] = tested on: Human glioma tumor cell with EGFRVIII mutation; experiment: CellTiter-Glo (CTG) cell viability, glioma cells; type: cell-based; conditions: 72 h of drug addition, read-out: Growth inhibition IC50, human glioma tumor cell with EGFRVIII mutation
Description: as §1

[8] = tested on: H3255 tumor cell (EGFR L858R mutation); experiment: CellTiter-Glo (CTG) cell viability, H3255 cells; type: cell-based; conditions: Homo sapiens, NCI-H3255, 72 h of drug addition, read-out: Growth inhibition IC50, H3255 tumor cell (EGFR L858R mutation)
Description: as §1

P-glycoprotein = P-glycoprotein (Homo sapiens, UniProt P08183); experiment: P-glycoprotein efflux substrate test; type: in vitro ADME
Sequence of P-glycoprotein (P08183 whole entry): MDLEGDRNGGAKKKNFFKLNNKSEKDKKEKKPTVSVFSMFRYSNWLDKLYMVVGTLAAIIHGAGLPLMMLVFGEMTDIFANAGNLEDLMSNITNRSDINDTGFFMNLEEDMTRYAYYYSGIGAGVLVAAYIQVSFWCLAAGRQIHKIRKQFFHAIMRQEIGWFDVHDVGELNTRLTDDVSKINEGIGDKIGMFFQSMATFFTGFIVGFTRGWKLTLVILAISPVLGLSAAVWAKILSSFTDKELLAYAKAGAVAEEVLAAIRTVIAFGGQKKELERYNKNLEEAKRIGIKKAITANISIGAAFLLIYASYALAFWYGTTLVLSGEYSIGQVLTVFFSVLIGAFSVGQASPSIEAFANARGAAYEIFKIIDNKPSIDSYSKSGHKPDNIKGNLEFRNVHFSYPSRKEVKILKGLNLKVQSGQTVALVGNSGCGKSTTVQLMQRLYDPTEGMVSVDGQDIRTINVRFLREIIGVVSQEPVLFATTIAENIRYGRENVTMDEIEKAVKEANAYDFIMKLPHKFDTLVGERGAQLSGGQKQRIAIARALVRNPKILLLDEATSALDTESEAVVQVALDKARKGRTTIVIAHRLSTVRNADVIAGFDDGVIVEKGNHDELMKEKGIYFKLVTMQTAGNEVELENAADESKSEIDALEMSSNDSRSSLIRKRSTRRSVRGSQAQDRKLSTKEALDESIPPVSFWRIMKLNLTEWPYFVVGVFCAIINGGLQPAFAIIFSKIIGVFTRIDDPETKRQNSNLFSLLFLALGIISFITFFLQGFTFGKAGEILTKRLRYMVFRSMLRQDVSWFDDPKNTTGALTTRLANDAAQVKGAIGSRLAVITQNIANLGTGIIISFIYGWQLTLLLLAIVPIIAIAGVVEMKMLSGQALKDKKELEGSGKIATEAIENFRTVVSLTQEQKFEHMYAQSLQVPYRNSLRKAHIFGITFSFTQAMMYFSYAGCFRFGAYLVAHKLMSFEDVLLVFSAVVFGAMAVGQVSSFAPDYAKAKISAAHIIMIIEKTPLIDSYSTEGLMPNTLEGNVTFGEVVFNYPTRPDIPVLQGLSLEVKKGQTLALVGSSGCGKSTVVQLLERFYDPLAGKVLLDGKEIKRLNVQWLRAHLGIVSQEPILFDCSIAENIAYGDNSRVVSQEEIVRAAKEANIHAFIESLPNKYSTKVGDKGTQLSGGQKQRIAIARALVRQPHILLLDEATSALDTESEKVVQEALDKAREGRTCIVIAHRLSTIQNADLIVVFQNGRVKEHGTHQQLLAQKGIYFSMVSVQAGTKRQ

[9] = listed as -1-3,3-difluoro-1-methylpiperidin-4-yl)oxy)-N-(3-ethynyl-2-fluorophenyl)-7-metho

Question: For `C#Cc1cccc(Nc2ncnc3cc(OC)c(O[C@@H]4CCN(C)CC4(F)F)cc23)c1F` [(R)-6-((3,3-difluoro-1-methylpiperidin-4-yl)oxy)-N-(3-ethynyl-2-fluorophenyl)-7-methoxyquinazoline-4-amine], which IC50 [1] is on record?
Answer: The IC50 was 8 nM.

Question: What about the bioavailability [2] of the same compound?
Answer: The bioavailability was > 35%.

Question: And the “Mechanism of action of EGFR inhibition” value (EGFR enzyme)?
Answer: Its value is “non-ATP competitive”.

Question: And the “Rate of crossing blood-brain barrier (ratio of free drug concentration in brain tissue to free drug concentration in plasma)” value [3]?
Answer: Its value is >50%.

Question: And the Kp at 4 h ([3]; rat, brain tissue and plasma (free drug concentrations), read-out: Rate of crossing blood-brain barrier (ratio of free drug concentration in brain tissue to free drug concentration in plasma))?
Answer: The Kp at 4 h was > 0.5.

Question: What about the “Survival compared to control group” value [4] of the same compound?
Answer: The value was “significantly prolonged”.

Question: And the “Breast cancer resistance protein efflux substrate” value [5]?
Answer: The value was “No”.

Question: What about the “Breast cancer resistance protein efflux substrate” value [5, 9] of the same compound?
Answer: The value was “not P-glycoprotein substrate or breast cancer resistance protein efflux substrate”.

Question: And the Survival ([6]; Group 3, 10 mg/kg)?
Answer: Its Survival is “significantly improved”.

Question: What about the Survival ([6]; Group 4, 3 mg/kg) of the same compound?
Answer: Its Survival is “significantly improved”.

Question: What about the IC50 [7] of the same compound?
Answer: The IC50 was 10 nM.

Question: What about the IC50 [8] of the same compound?
Answer: The IC50 was 2 nM.

Question: And the P-glycoprotein efflux substrate (P-glycoprotein)?
Answer: The P-glycoprotein efflux substrate was “No”.

Question: And the P-glycoprotein efflux substrate (P-glycoprotein; [9])?
Answer: Its P-glycoprotein efflux substrate is “not P-glycoprotein substrate”.
